# Assay results as given in patent publication US20260157964A1, “LIPOPHILIC STATIN COMPOSITION WITH IMPROVED SOLUBILITY AND PERMEABILITY AND USES THEREOF” (KOREA INSTITUTE OF SCIENCE AND TECHNOLOGY, priority 2021, published 2026).
# How the values were obtained:
# [1] = test system: CT26 cells; assay: In vitro cytotoxicity in CT26 cells (CCK-8); type: cell-based, mouse
# Experimental: Specifically, 5×10^3 CT26 cells were inoculated on 100 μL of DMEM and a Roswell Park Memorial Institute (RPMI) medium, respectively supplemented with 10% (v/v) FBS and 1% penicillin/streptomycin. […] DL and CD were also treated in the same volume and each of the concentrations. After 24 hours of the culturing, 10 μL of a WST-8 solution [2-2-methoxy-4-nitrophenyl)-3-(4-nitrophenyl)-5-(2,4-disulfophenyl)-2H-tetrazolium monosodium salt] was diluted with 100 μL of each medium, followed by culturing for 2 hours. Then, absorbance was measured using a microplate reader (PerkinElmer multimode plate reader) at 450 nm. Percentages of viable cells are shown by comparing the number of treated cells with that of untreated cells.
# [2] = in vivo; conditions: SD, rat
# [3] = Pharmacokinetics of OP (platinum) in rats, repeated oral dosing; type: in vivo, SD rats
# Experimental: After SD rats were orally administered with various concentrations of ODSF repeatedly, the rats were divided into 5 groups (4 rats per group) to evaluate pharmacokinetic properties of OP. The rats were orally administered with a daily dose of 400 μL of OP (10) (OP dispersed in water, 10 mg/kg) or ODSF (2.5), ODSF (10), and ODSF (20) (containing 2.5 mg/kg, 10 mg/kg, and 20 mg/kg OP, respectively), for 14 days. […] Plasma concentrations of OP were measured based on the platinum concentration, after decomposition with nitric acid at 100° C., by inductively coupled plasma-mass spectroscopy (ICP-MS) at a high frequency power of 1450 W, at a coolant flow rate of 12 L/min, at an axillary flow rate of 2.3 L/min, and at a nebulizer flow rate of 0.89 L/min.
# Plasma profiles of not only OP in water (10 mg/kg) [OP (10)] but also ODSF including 2.5 mg/kg, 10 mg/kg, and 20 mg/kg OP [ODSF (2.5), ODSF (10), and ODSF (20), respectively] were identified after 2-week continuous metronomic administration in comparison with a single IV bolus dose of 5 mg/kg OP [OP-IV (5)] administered on day 1 and day 14.
# [4] = oral once a day 14 days, 10 mg/kg OP
structure (smiles),measurement,setting,value
"CCC(C)(C)C(=O)O[C@H]1C[C@@H](C)C=C2C=C[C@H](C)[C@H](CC[C@@H]3C[C@@H](O)CC(=O)O3)[C@H]21 [SIMVA, simvastatin]",IC50,"[1]; Mus musculus, CT26, 24 h, read-out: IC50 (concentration of a drug required to kill 50% of cells)",183 µg/mL
same,half-life,"[2]; in vivo, po, 50 mg/kg",1.6 h
same,Tmax,"[2]; plasma, po, 50 mg/kg",1.5 h
"CCC(C)(C)C(=O)O[C@H]1C[C@@H](C)C=C2C=C[C@H](C)[C@H](CC[C@@H]3C[C@@H](O)CC(=O)O3)[C@H]21 [SIMVA-IP (10), simvastatin]",Tmax,"[2]; plasma, ip, 10 mg/kg",0.5 h
same,half-life,"[2]; plasma, ip, 10 mg/kg",0.54 h
"O=C1[O][Pt]2([NH][C@@H]3CCCC[C@H]3[NH]2)[O]C1=O [OP, oxaliplatin]","AUCinf, on day 14","[3]; IV, 5 mg/kg OP",8120 ± 2470 ng·h/mL
same,"AUClast, on day 14","[3]; IV, 5 mg/kg OP",5460 ± 1460 ng·h/mL
same,"Cmax, on day 14","[3]; IV, 5 mg/kg OP",1060 ± 337 ng/mL
same,Bioavailability,"[3]; IV, 5 mg/kg OP (reference)",100%
same,"T1/2, on day 14","[3]; IV, 5 mg/kg OP on day 1 and day 14, platinum, n=4",15.8 ± 1.32 h
same,"AUCinf, on day 14",[3]; [4],1500 ± 196 ng·h/mL
same,"AUClast, on day 14",[3]; [4],775 ± 124 ng·h/mL
same,Bioavailability,[3]; [4],7.09 ± 1.14%
same,"Cmax, on day 14",[3]; [4],53 ± 14 ng/mL
same,"T1/2, on day 14",[3]; [4],23.7 ± 0.723 h
same,"Tmax, on day 14",[3]; [4],0.833 ± 0.289 h
"CCC(C)(C)C(=O)O[C@H]1C[C@@H](C)C=C2C=C[C@H](C)[C@H](CC[C@@H]3C[C@@H](O)CC(=O)O3)[C@H]21 [SIMVA-IV (10), simvastatin]",half-life,"[2]; plasma, iv, 10 mg/kg",0.39 h
"CCC(C)(C)C(=O)O[C@H]1C[C@@H](C)C=C2C=C[C@H](C)[C@H](CC[C@@H]3C[C@@H](O)CC(=O)O3)[C@H]21 [SIMVA in DMSO (50), simvastatin]",half-life,"[2]; plasma, po, 50 mg/kg",1.22 h
"COC(=O)[C@H](CCCCN)NC(=O)CC[C@@H](C)[C@H]1CC[C@H]2[C@@H]3CC[C@@H]4C[C@H](O)CC[C@]4(C)[C@H]3C[C@H](O)[C@]12C [DL, N^α-deoxycholyl-I-lysyl-methylester]",Cell viability,"[1]; CT26, carrier amount matching maximum SIMVA concentration of 200 μg/mL",77.1%
